According to US12673975B2, “Cyclic peptide, cell scaffold material, cell separating material, and medium” (FUJIFILM Corporation, priority 2019, dated 2026):
Where two headings read alike, the source gives them in different places. Starred links: 1 amine or outer side, 2 acyl side, 3 side chain; linkers in the order of their positions; H or OH if unused. Positions of bridges follow the written chain, without caps; N, C: chain ends. Non-standard residues stand in square brackets, D forms with d. Residues, ends and D or L forms follow the SMILES beside them. hCys = N[C@@H](CCS)C(=O)O; Dab = NCC[C@H](N)C(=O)O; X2 = O=C(C[*:1])[*:2]

Key:
[1] = Evaluation of molecule stability (alkali treatment, residual rate by LC/MS); assay type: physicochemical; settings: for Performance evaluation: Stability (residual rate of cyclic peptide after alkali treatment): 500 μM peptide aqueous solution plus equivalent of 1 M sodium hydroxide, 15° C., 3 hours, LC/MS peak area; for Stability (molecule stability, residual rate of the cyclic peptide rank): alkali treatment, residual rate by LC/MS
Procedure, shortened: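 500 μM aqueous cyclic peptide mixed with an equal volume of 1 M NaOH and held 3 h at 15 °C. Residual rate is total LC/MS peak area after treatment relative to untreated (100%), using a C18 column, pH 3 ammonium formate/acetonitrile gradient, 45 °C, ESI±.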

human integrin αvβ5 = human integrin αvβ5 (Homo sapiens, UniProt P06756+P18084); test: Evaluation of integrin binding property (surface plasmon resonance, Biacore 3000, immobilized cyclic peptide)
Chain of human integrin αvβ5 (P06756 31-1048): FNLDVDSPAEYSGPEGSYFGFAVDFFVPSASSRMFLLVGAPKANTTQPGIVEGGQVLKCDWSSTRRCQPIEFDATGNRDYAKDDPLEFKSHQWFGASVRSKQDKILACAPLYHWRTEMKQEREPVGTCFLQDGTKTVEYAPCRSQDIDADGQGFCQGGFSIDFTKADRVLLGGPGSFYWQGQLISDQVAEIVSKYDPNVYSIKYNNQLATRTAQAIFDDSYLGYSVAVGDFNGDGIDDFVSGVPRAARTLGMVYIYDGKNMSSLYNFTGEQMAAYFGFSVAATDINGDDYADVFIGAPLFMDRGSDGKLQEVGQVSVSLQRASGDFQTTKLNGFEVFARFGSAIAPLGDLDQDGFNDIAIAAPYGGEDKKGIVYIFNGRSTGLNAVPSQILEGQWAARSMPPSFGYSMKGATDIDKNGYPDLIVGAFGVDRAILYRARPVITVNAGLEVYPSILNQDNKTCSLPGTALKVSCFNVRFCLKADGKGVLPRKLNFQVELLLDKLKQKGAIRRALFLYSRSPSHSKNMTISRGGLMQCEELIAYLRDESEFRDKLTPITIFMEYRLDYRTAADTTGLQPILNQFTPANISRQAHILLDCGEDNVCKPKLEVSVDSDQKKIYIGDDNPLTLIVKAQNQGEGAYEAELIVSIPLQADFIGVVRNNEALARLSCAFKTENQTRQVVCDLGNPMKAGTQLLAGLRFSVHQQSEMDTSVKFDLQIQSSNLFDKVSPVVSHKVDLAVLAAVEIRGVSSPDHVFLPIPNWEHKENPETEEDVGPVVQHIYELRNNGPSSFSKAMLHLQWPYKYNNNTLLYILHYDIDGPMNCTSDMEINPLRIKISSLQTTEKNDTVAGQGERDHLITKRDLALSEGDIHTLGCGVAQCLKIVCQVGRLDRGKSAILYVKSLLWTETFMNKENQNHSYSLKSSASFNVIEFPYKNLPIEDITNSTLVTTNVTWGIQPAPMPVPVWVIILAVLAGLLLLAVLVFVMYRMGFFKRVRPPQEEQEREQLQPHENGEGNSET
Chain of human integrin αvβ5 (P18084 24-799): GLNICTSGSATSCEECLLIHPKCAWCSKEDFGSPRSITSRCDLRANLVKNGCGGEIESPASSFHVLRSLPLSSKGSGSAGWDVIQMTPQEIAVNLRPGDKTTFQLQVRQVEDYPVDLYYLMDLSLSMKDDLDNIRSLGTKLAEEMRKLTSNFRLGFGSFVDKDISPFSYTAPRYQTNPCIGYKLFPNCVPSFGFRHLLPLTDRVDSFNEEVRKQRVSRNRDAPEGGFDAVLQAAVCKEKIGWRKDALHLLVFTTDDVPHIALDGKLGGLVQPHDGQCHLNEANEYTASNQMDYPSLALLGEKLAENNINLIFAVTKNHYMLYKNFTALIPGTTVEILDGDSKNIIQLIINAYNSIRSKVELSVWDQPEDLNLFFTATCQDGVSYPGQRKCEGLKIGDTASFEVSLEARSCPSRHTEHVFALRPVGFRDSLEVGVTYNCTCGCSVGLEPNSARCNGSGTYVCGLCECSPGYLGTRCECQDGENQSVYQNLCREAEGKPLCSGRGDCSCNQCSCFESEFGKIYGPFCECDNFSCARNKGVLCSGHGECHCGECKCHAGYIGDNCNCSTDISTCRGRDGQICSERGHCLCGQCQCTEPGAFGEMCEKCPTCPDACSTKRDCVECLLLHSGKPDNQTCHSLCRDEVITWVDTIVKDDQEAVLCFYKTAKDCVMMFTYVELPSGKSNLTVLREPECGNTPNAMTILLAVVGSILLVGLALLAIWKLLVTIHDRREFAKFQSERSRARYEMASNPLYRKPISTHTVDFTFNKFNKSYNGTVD
Procedure, shortened: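 SPR with cyclic peptide amine-coupled via EDC/NHS to a CM5 chip, blank channel as reference. Integrin αvβ5 at 30, 100, 300 and 1,000 nM injected 10 min at 25 °C in HEPES buffer pH 7.4 with 5 mM MgCl2, 30 min buffer flow, EDTA regeneration; Kd from reference-subtracted signals, graded by category.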

[2] = SPR, 25° C., HEPES buffer with 5 mM magnesium chloride, integrin 30-1,000 nM, read-out: Performance evaluation: Binding activity (dissociation constant between the cyclic peptide and human integrin αvβ5)
[3] = surface plasmon resonance, immobilized cyclic peptide, human integrin αvβ5, read-out: Binding activity (integrin binding property, dissociation constant rank)

| Kd (human integrin αvβ5; [2]) | Kd (human integrin αvβ5; [3]) | Structure (SMILES) | Performance evaluation: Stability (residual rate of cyclic peptide after alkali treatment) [1] | Stability (molecule stability, residual rate of the cyclic peptide rank) [1] |
| --- | --- | --- | --- | --- |
| < 50 nM |  | CC[C@H](C)[C@@H]1NC(=O)[C@H](C)NC(=O)[C@@H](NC(=O)CNC(=O)[C@H](CCCCN)NC(=O)[C@H](CCCCN)NC(=O)[C@@H](N)CCCCN)CCSCC(=O)NCC[C@@H](C(=O)N[C@@H](C)C(=O)O)NC(=O)[C@H](C)NC(=O)[C@H](CCCNC(=N)N)NC(=O)[C@H](Cc2ccccc2)NC(=O)[C@H]([C@@H](C)O)NC(=O)[C@H](CC(=O)O)NC(=O)CNC(=O)[C@H](CCCNC(=N)N)NC(=O)[C@@H]2CCCN2C1=O [Cyclic peptide 67, KKKG-(Hcy)-AIPRGDTFRA(Dab(acetyl))A] (H-KKKG[hCys]AIPRGDTFRA[Dab]A-OH; linker 5-16 via X2) | A (The residual rate of the cyclic peptide is 70% or more.) |  |
| < 50 nM |  | CC(C)C[C@@H]1NC(=O)[C@@H](NC(=O)[C@H](C)NC(=O)[C@H](CCCCN)NC(=O)[C@H](CCCCN)NC(=O)[C@@H](N)CCCCN)CCSCC(=O)NCC[C@@H](C(=O)N[C@@H](CC(=O)O)C(=O)O)NC(=O)[C@H](CCCNC(=N)N)NC(=O)[C@H](Cc2ccc(O)cc2)NC(=O)[C@H](CC(N)=O)NC(=O)[C@H](CC(=O)O)NC(=O)CNC(=O)[C@H](CCCNC(=N)N)NC(=O)[C@@H]2CCCN2C1=O [Cyclic peptide 31, KKKA-(Hcy)-LPRGDNYR(Dab(acetyl))D] (H-KKKA[hCys]LPRGDNYR[Dab]D-OH; linker 5-14 via X2) | A (The residual rate of the cyclic peptide is 70% or more.) |  |
| < 50 nM |  | CC[C@H](C)[C@@H]1NC(=O)[C@@H](NC(=O)[C@H](CCCCN)NC(=O)[C@H](CCCCN)NC(=O)[C@@H](N)CCCCN)CCSCC(=O)NCC[C@@H](C(=O)N[C@@H](C)C(=O)O)NC(=O)[C@H](CCCNC(=N)N)NC(=O)[C@H](Cc2ccccc2)NC(=O)[C@H]([C@@H](C)O)NC(=O)[C@H](CC(=O)O)NC(=O)CNC(=O)[C@H](CCCNC(=N)N)NC(=O)[C@@H]2CCCN2C1=O [Cyclic peptide 57, KKK-(Hcy)-IPRGDTFR(Dab(acetyl))A] (H-KKK[hCys]IPRGDTFR[Dab]A-OH; linker 4-13 via X2) | A (The residual rate of the cyclic peptide is 70% or more.) |  |
| < 50 nM |  | CC(C)[C@@H]1NC(=O)[C@@H](NC(=O)[C@H](CCCCN)NC(=O)[C@H](CCCCN)NC(=O)[C@@H](N)CCCCN)CCSCC(=O)NCC[C@@H](C(=O)N[C@@H](C)C(=O)O)NC(=O)[C@H](CCCNC(=N)N)NC(=O)[C@H](Cc2ccccc2)NC(=O)[C@H](CC(N)=O)NC(=O)[C@H](CC(=O)O)NC(=O)CNC(=O)[C@H](CCCNC(=N)N)NC(=O)[C@@H]2CCCN2C1=O [Cyclic peptide 21, KKK-(Hcy)-VPRGDNFR(Dab(acetyl))A] (H-KKK[hCys]VPRGDNFR[Dab]A-OH; linker 4-13 via X2) | A (The residual rate of the cyclic peptide is 70% or more.) |  |

More lines, now with the values behind:

| Structure (SMILES) | Kd (human integrin αvβ5; [2]) | Kd (human integrin αvβ5; [3]) | Performance evaluation: Stability (residual rate of cyclic peptide after alkali treatment) [1] | Stability (molecule stability, residual rate of the cyclic peptide rank) [1] |
| --- | --- | --- | --- | --- |
| CC(C)[C@@H]1NC(=O)[C@@H](NC(=O)[C@H](C)NC(=O)[C@H](CCCCN)NC(=O)[C@H](CCCCN)NC(=O)[C@H](CCCCN)NC(=O)[C@@H](N)CCCCN)CCSCC(=O)NCC[C@@H](C(=O)N[C@@H](C)C(=O)O)NC(=O)[C@H](C)NC(=O)[C@H](Cc2ccccc2)NC(=O)[C@H]([C@@H](C)O)NC(=O)[C@H](CC(=O)O)NC(=O)CNC(=O)[C@H](CCCNC(=N)N)NC(=O)[C@@H]2CCCN2C1=O [Cyclic peptide 110, KKKKA-(Hcy)-VPRGDTFA(Dab(acetyl))A] (H-KKKKA[hCys]VPRGDTFA[Dab]A-OH; linker 6-15 via X2) |  | < 50 nM |  | A (The residual rate of the cyclic peptide is 70% or more.) |
| C[C@H](NC(=O)[C@H](CCCCN)NC(=O)[C@H](CCCCN)NC(=O)[C@@H](N)CCCCN)C(=O)N[C@H]1CCSCC(=O)NCC[C@@H](C(=O)O)NC(=O)[C@H](C)NC(=O)[C@H](Cc2ccccc2)NC(=O)[C@H]([C@@H](C)O)NC(=O)[C@H](CC(=O)O)NC(=O)CNC(=O)[C@H](CCCNC(=N)N)NC(=O)[C@@H]2CCCN2C(=O)[C@H]([C@@H](C)O)NC1=O [Cyclic peptide 158, KKKA-(Hcy)-TPRGDTFA(Dab(acetyl))] (H-KKKA[hCys]TPRGDTFA[Dab]-OH; linker 5-14 via X2) |  | < 50 nM |  | A (The residual rate of the cyclic peptide is 70% or more.) |
| C[C@@H]1NC(=O)[C@H](Cc2ccccc2)NC(=O)[C@H]([C@@H](C)O)NC(=O)[C@H](CC(=O)O)NC(=O)CNC(=O)[C@H](CCCNC(=N)N)NC(=O)[C@@H]2CCCN2C(=O)[C@H](CCC(=O)O)NC(=O)[C@@H](NC(=O)[C@H](CCCCN)NC(=O)[C@H](CCCCN)NC(=O)[C@@H](N)CCCCN)CCSCC(=O)NCC[C@@H](C(=O)O)NC1=O [Cyclic peptide 145, KKK-(Hcy)-EPRGDTFA(Dab(acetyl))] (H-KKK[hCys]EPRGDTFA[Dab]-OH; linker 4-13 via X2) |  | < 50 nM |  | A (The residual rate of the cyclic peptide is 70% or more.) |
